Experimental data from US20250241894A1, “TREATMENT OF MENTAL DISORDERS” (GH RESEARCH IRELAND LIMITED, priority 2022, published 2025).

System: patients with postpartum depression (PPD)
Experiment: Open-label clinical trial of inhaled 5-MeO-DMT (single-day IDR) in postpartum depression; one patient so far, received 6 mg then 12 mg
Experimental: The single-arm, open-label clinical trial will involve 15 adult female patients with clinically diagnosed postpartum depression (PPD).
The second dose (12 mg) will only be administered if: • a. […] The 6 mg dose was safe and well-tolerated according to the investigator, • c. Any psychoactive effects (PsE) of the prior dose have subsided, and • d. Pre-dose vital parameters and forced expiratory volume in one second (FEV1) are in normal range, or if outside of the normal range, are not clinically significant according to the investigator. • 3. Similarly, a third dose (18 mg) will only be administered if: • a. […] The 12 mg dose was safe and well-tolerated according to the investigator, and • c. Any PsE of the prior dose have subsided, and • d. Pre-dose vital parameters and forced expiratory volume in one second (FEV1) are in normal range, or if outside of the normal range, are not clinically significant according to the investigator.
The patients will be assessed for a peak psychedelic experience (based on a patient-scored visual analogue scale, the PE scale), sedation, and other endpoints after dosing.
Follow-up visits are planned for Day 1, and Day 7 after the dosing day.
The following criteria must be met by all patients considered for clinical trial participation: • 1. Is female and in the age range between 18 and 45 years (inclusive) at screening. • 2. Has a body mass index (BMI) in the range of 18.5 and 35 kg/m^2 (inclusive) at screening. • 3. Meets the trial criteria for PPD as assessed by a trial psychiatrist or registered psychologist: • a. Diagnosis of Major Depressive Disorder without psychotic features, confirmed by the Mini-International Neuropsychiatric Interview (MINI), with peri-partum onset that began no earlier than gestation and no later than the first 4 weeks postpartum. • b. Has a Montgomery-Åsberg Depression Rating Scale (MADRS) total score of equal to or greater than 28 at screening and pre-dose on Day 0. • 6. […] Patients must have a negative pregnancy test at screening and on the pre-test day (Day-1). • 5. Is willing to delay start of other antidepressant or anxiety medication until after the end of the trial at Day 7 and agrees to keep any psychotherapy unchanged during the trial.

COc1ccc2[nH]cc(CCN(C)C)c2c1 [5-MeO-DMT]
ECG (3 hours), safety laboratory analyses (7 days), CADSS (3 hours, 1 day, 7 days) (n=1): unremarkable
MADRS response (>=50% improvement) and remission (total <=10) criteria (n=1): fulfilled standard criteria for MADRS response
Onset of clinical response (n=1): ≤ 2 h
Time to clinical remission (n=1): ≤ 2 h
Tolerability of inhalation procedure (n=1): well tolerated with no inhalation-related adverse events
Total MADRS improvement (n=1, 2 hr): 24
Total MADRS score (n=1, 2 hr, baseline 29): 5
Reported adverse events (cramping left abdominal pain, headache) (n=1, Day 0): mild, short-lasting and resolved spontaneously
BPRS Tension improvement (n=1, Day 1): 5
Total MADRS improvement (n=1, Day 1): 29
Total MADRS score (n=1, Day 1, baseline 29): 0
Total MADRS improvement (n=1, Day 7): 28
BIMF functional domain Adjustment score (n=1, Day 7, Day 0 5, maximum 12): 6
BIMF functional domain Self-Care score (n=1, Day 7, Day 0 9, maximum 18): 13
BIMF functional domain Infant Care score (n=1, Day 7, Day 0 12, maximum 12): 12
BIMF functional domain Mother-Child Interaction score (n=1, Day 7, Day 0 15, maximum 18): 17
BIMF functional domain Social Support score (n=1, Day 7, Day 0 17, maximum 18): 18
BIMF functional domain Management score (n=1, Day 7, Day 0 28, maximum 36): 33
BIMF functional domain Psychological Well-being score (n=1, Day 7, Day 0 44, maximum 60): 53
BIMF item 19 (As time goes on, I am getting better at taking care of my baby) score (n=1, Day 7, Day 0 score 0): 1
BIMF item 16 (I worry about how other people judge me (as a mother)) score (n=1, Day 7, Day 0 score 3): 5
BIMF item 13 (I am taking good care of my physical needs) score (n=1, Day 7, Day 0 score 4): 5
BIMF item 5 (I am able to relax and enjoy time with my baby) score (n=1, Day 7, Day 0 score 5): 6
BIMF item 9 (I am getting enough encouragement from other people) score (n=1, Day 7, Day 0 score 5): 6
BIMF item 10 (I trust my own feelings (instincts) when it comes to taking care of my baby) score (n=1, Day 7, Day 0 score 5): 6
BIMF item 11 (I take a little time each week to do something for myself) score (n=1, Day 7, Day 0 score 5): 6
BIMF item 17 (I am able to take care of my baby and my other responsibilities) score (n=1, Day 7, Day 0 score 5): 5
BIMF item 3 (I am comfortable with the way I've chosen to feed my baby) score (n=1, Day 7, Day 0 score 6): 6
BIMF item 6 (There are people in my life that I can trust to care for my baby when I need a break) score (n=1, Day 7, Day 0 score 6): 6
BIMF item 8 (I am getting enough adult interaction) score (n=1, Day 7, Day 0 score 6): 6
BIMF item 12 (I am taking good care of my baby's physical needs) score (n=1, Day 7, Day 0 score 6): 6
BIMF item 14 (I make good decisions about my baby's health and well being) score (n=1, Day 7, Day 0 score 6): 6
BIMF item 20 (I am satisfied with the job I am doing as a new mother) score (n=1, Day 7, Day 0 score 6): 5
Total MADRS score (n=1, Day 7, baseline 29): 1
BIMF total score improvement (n=1, Day 7, from 92): 14%
BIMF TOTAL Δ (n=1, Day 7 vs Day 0): 13
BIMF functional domain Adjustment % Improvement (n=1, Day 7 vs Day 0): 20.00%
BIMF functional domain Adjustment Δ (n=1, Day 7 vs Day 0): 1
BIMF functional domain Infant Care % Improvement (n=1, Day 7 vs Day 0): 0.00%
BIMF functional domain Infant Care Δ (n=1, Day 7 vs Day 0): 0
BIMF functional domain Management % Improvement (n=1, Day 7 vs Day 0): 18%
BIMF functional domain Management Δ (n=1, Day 7 vs Day 0): 5
BIMF functional domain Mother-Child Interaction Δ (n=1, Day 7 vs Day 0): 2
BIMF functional domain Psychological Well-being Δ (n=1, Day 7 vs Day 0): 9
BIMF functional domain Self-Care % Improvement (n=1, Day 7 vs Day 0): 44%
BIMF functional domain Self-Care Δ (n=1, Day 7 vs Day 0): 4
BIMF functional domain Social Support Δ (n=1, Day 7 vs Day 0): 1
BIMF item 1 (I am a good mother) Δ (n=1, Day 7 vs Day 0): 0
BIMF item 2 (I feel rested) Δ (n=1, Day 7 vs Day 0): 2
BIMF item 3 (I am comfortable with the way I've chosen to feed my baby) Δ (n=1, Day 7 vs Day 0): 0
BIMF item 4 (My baby and I understand each other) Δ (n=1, Day 7 vs Day 0): 0
BIMF item 5 (I am able to relax and enjoy time with my baby) Δ (n=1, Day 7 vs Day 0): 1
BIMF item 6 (There are people in my life that I can trust to care for my baby when I need a break) Δ (n=1, Day 7 vs Day 0): 0
BIMF item 8 (I am getting enough adult interaction) Δ (n=1, Day 7 vs Day 0): 0
BIMF item 9 (I am getting enough encouragement from other people) Δ (n=1, Day 7 vs Day 0): 1
BIMF item 10 (I trust my own feelings (instincts) when it comes to taking care of my baby) Δ (n=1, Day 7 vs Day 0): 1
BIMF item 11 (I take a little time each week to do something for myself) Δ (n=1, Day 7 vs Day 0): 1
BIMF item 12 (I am taking good care of my baby's physical needs) Δ (n=1, Day 7 vs Day 0): 0
BIMF item 13 (I am taking good care of my physical needs) Δ (n=1, Day 7 vs Day 0): 1
BIMF item 14 (I make good decisions about my baby's health and well being) Δ (n=1, Day 7 vs Day 0): 0
BIMF item 15 (My baby and I are getting into a routine) Δ (n=1, Day 7 vs Day 0): 1
BIMF item 16 (I worry about how other people judge me (as a mother)) Δ (n=1, Day 7 vs Day 0): 2
BIMF item 17 (I am able to take care of my baby and my other responsibilities) Δ (n=1, Day 7 vs Day 0): 0
BIMF item 18 (Anxiety or worry often interferes with my mothering ability) Δ (n=1, Day 7 vs Day 0): 3
BIMF item 19 (As time goes on, I am getting better at taking care of my baby) Δ (n=1, Day 7 vs Day 0): 1
BIMF item 20 (I am satisfied with the job I am doing as a new mother) Δ (n=1, Day 7 vs Day 0): −1
BPRS Tension improvement (n=1, Discharge): 5
Vital parameters (n=1, shortly after administration): temporary, clinically non-relevant increase in heart rate and blood pressure
